Measured values published in patent US6737383B1, “Herbicidal oxadiazolidines” (priority 1999, dated 2004).

Assays:
duck salad = experiment: Test B flood test duck salad; format: in vivo, Heteranthera limosa
Summary of the method: (§1)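 Read-out is a visual response score from 0 (no effect) to 10 (complete control), assigned by comparison with untreated controls. Treatment was applied at the 2-leaf stage, and plants stayed in the greenhouse for twelve to sixteen days before scoring.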

surinam grass = experiment: Test B pre/postemergence surinam grass; format: in vivo, Brachiaria decumbens
Summary of the method: (§2)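 Test chemicals in a non-phytotoxic solvent mixture with surfactant were sprayed preemergence onto planted seeds and postemergence onto plants 2 to 18 cm tall (1- to 4-leaf stage). After twelve to sixteen days in a greenhouse, injury was visually rated against untreated controls from 0 (no effect) to 10 (complete control).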

cocklebur = experiment: Test B pre/postemergence cocklebur; format: in vivo, Xanthium strumarium
Summary of the method: as §2

pigweed = experiment: Test B pre/postemergence pigweed; format: in vivo, Amaranthus retroflexus
Summary of the method: as §2

rape = experiment: Test B pre/postemergence rape; format: in vivo, Brassica napus
Summary of the method: as §2

morningglory = experiment: Test B pre/postemergence morningglory; format: in vivo, Ipomoea hederacea
Summary of the method: as §2

bamyardgrass = experiment: Test B flood test barnyardgrass; format: in vivo, Echinochloa crus-galli
Summary of the method: as §1

purple nutsedge = experiment: Test B pre/postemergence purple nutsedge; format: in vivo, Cyperus rotundus
Summary of the method: as §2

velvetleaf = experiment: Test B pre/postemergence velvetleaf; format: in vivo, Abutilon theophrasti
Summary of the method: as §2

corn = experiment: Test B pre/postemergence corn; format: in vivo, Zea mays
Summary of the method: as §2

blackgrass = experiment: Test B pre/postemergence blackgrass; format: in vivo, Alopecurus myosuroides
Summary of the method: as §2

wild oat = experiment: Test B pre/postemergence wild oat; format: in vivo, Avena fatua
Summary of the method: as §2

rice = experiment: Test B flood test rice; format: in vivo, Oryza sativa
Summary of the method: as §1

smallflower flatsedge = experiment: Test B flood test smallflower flatsedge; format: in vivo, Cyperus difformis
Summary of the method: as §1

bedstraw = experiment: Test B pre/postemergence bedstraw; format: in vivo, Galium aparine
Summary of the method: as §2

wheat = experiment: Test B pre/postemergence wheat; format: in vivo, Triticum aestivum
Summary of the method: as §2

[1] = Postemergence, Rate 1000 g/ha, scale 0 to 10 (0 no effect, 10 complete control)
[2] = Rate 125 g/ha, Postemergence section (flood test species), scale 0 to 10, 0 no effect, 10 complete control
[3] = Rate 500 g/ha, Postemergence section of Table B, 0 to 10 scale (0 no effect, 10 complete control)
[4] = flood test, listed under Postemergence, Rate 250 g/ha, scale 0 to 10, 0 no effect, 10 complete control
[5] = Postemergence, Rate 250 g/ha, scale 0 to 10, 0 no effect, 10 complete control
[6] = Preemergence, Rate 125 g/ha, scale 0 to 10 (0 no effect, 10 complete control)
[7] = Preemergence, Rate 250 g/ha, scale of 0 to 10 where 0 is no effect and 10 is complete control
[8] = Preemergence, Rate 500 g/ha, scale 0 (no effect) to 10 (complete control)
[9] = Rate 125 g/ha, Postemergence, scale 0 to 10, 0 no effect, 10 complete control
[10] = Rate 500 g/ha, Postemergence, 0 to 10 scale (0 no effect, 10 complete control)
[11] = Rate 1000 g/ha, Preemergence, scale 0 to 10 (0 no effect, 10 complete control)

COc1ccc(-n2c(=O)on(C(=O)N(c3ccc(F)cc3)C(C)C)c2=O)cc1 [Compound 5]
Ducksalad plant response rating (duck salad; [1]): 0 | Ducksalad plant response rating (duck salad; [2]): 0 | Ducksalad plant response rating (duck salad; [3]): 0 | Ducksalad plant response rating (duck salad; [4]): 0 | B. signalgrass plant response rating (surinam grass; [5]): 0 | B. signalgrass plant response rating (surinam grass; [1]): 4 | Plant response rating, B. signalgrass (surinam grass; [6]): 3 | Plant response rating, B. signalgrass (surinam grass; [7]): 3 | B. signalgrass plant response rating (surinam grass; [8]): 3 | B. signalgrass plant response rating (surinam grass; [9]): 0 | B. signalgrass plant response rating (surinam grass; [10]): 0 | Plant response rating, B. signalgrass (surinam grass; [11]): 8 | Cocklebur plant response rating (cocklebur; [5]): 5 | Cocklebur plant response rating (cocklebur; [1]): 8 | Plant response rating, Cocklebur (cocklebur; [6]): 0 | Plant response rating, Cocklebur (cocklebur; [7]): 0 | Cocklebur plant response rating (cocklebur; [8]): 0 | Cocklebur plant response rating (cocklebur; [9]): 5 | Cocklebur plant response rating (cocklebur; [10]): 5 | Plant response rating, Cocklebur (cocklebur; [11]): 0 | Redroot pigweed plant response rating (pigweed; [5]): 7 | Redroot pigweed plant response rating (pigweed; [1]): 8 | Plant response rating, Redroot pigweed (pigweed; [6]): 6 | Plant response rating, Redroot pigweed (pigweed; [7]): 7 | Redroot pigweed plant response rating (pigweed; [8]): 7 | Redroot pigweed plant response rating (pigweed; [9]): 7 | Redroot pigweed plant response rating (pigweed; [10]): 7 | Plant response rating, Redroot pigweed (pigweed; [11]): 10 | Rape plant response rating (rape; [5]): 5 | Rape plant response rating (rape; [1]): 5 | Plant response rating, Rape (rape; [6]): 0 | Plant response rating, Rape (rape; [7]): 0 | Rape plant response rating (rape; [8]): 0 | Rape plant response rating (rape; [9]): 5 | Rape plant response rating (rape; [10]): 4 | Plant response rating, Rape (rape; [11]): 0 | Morningglory plant response rating (morningglory; [5]): 3 | Morningglory plant response rating (morningglory; [1]): 9 | Plant response rating, Morningglory (morningglory; [6]): 0 | Plant response rating, Morningglory (morningglory; [7]): 0 | Morningglory plant response rating (morningglory; [8]): 0 | Morningglory plant response rating (morningglory; [9]): 2 | Plant response rating, Morningglory (morningglory; [11]): 0 | Barnyardgrass plant response rating (bamyardgrass; [1]): 4 | Barnyardgrass plant response rating (bamyardgrass; [2]): 0 | Barnyardgrass plant response rating (bamyardgrass; [3]): 2 | Barnyardgrass plant response rating (bamyardgrass; [4]): 0 | Nutsedge plant response rating (purple nutsedge; [5]): 0 | Nutsedge plant response rating (purple nutsedge; [1]): 0 | Plant response rating, Nutsedge (purple nutsedge; [6]): 0 | Plant response rating, Nutsedge (purple nutsedge; [7]): 0 | Nutsedge plant response rating (purple nutsedge; [8]): 0 | Nutsedge plant response rating (purple nutsedge; [9]): 0 | Nutsedge plant response rating (purple nutsedge; [10]): 0 | Plant response rating, Nutsedge (purple nutsedge; [11]): 0 | Velvetleaf plant response rating (velvetleaf; [5]): 5 | Velvetleaf plant response rating (velvetleaf; [1]): 7 | Plant response rating, Velvetleaf (velvetleaf; [6]): 0 | Plant response rating, Velvetleaf (velvetleaf; [7]): 0 | Velvetleaf plant response rating (velvetleaf; [8]): 0 | Velvetleaf plant response rating (velvetleaf; [9]): 4 | Plant response rating, Velvetleaf (velvetleaf; [11]): 0 | Corn plant response rating (corn; [5]): 0 | Corn plant response rating (corn; [1]): 0 | Plant response rating, Corn (corn; [6]): 0 | Plant response rating, Corn (corn; [7]): 0 | Corn plant response rating (corn; [8]): 0 | Corn plant response rating (corn; [9]): 0 | Corn plant response rating (corn; [10]): 0 | Plant response rating, Corn (corn; [11]): 0 | Blackgrass plant response rating (blackgrass; [5]): 5 | Blackgrass plant response rating (blackgrass; [1]): 8 | Plant response rating, Blackgrass (blackgrass; [6]): 3 | Plant response rating, Blackgrass (blackgrass; [7]): 3 | Blackgrass plant response rating (blackgrass; [8]): 5 | Blackgrass plant response rating (blackgrass; [9]): 4 | Blackgrass plant response rating (blackgrass; [10]): 4 | Plant response rating, Blackgrass (blackgrass; [11]): 8 | Wild oats plant response rating (wild oat; [5]): 1 | Wild oats plant response rating (wild oat; [1]): 1 | Plant response rating, Wild oats (wild oat; [6]): 0 | Plant response rating, Wild oats (wild oat; [7]): 6 | Wild oats plant response rating (wild oat; [8]): 6 | Wild oats plant response rating (wild oat; [9]): 0 | Plant response rating, Wild oats (wild oat; [11]): 6 | Rice plant response rating (rice; [1]): 0 | Rice plant response rating (rice; [2]): 0 | Rice plant response rating (rice; [3]): 0 | Rice plant response rating (rice; [4]): 0 | S. Flatsedge plant response rating (smallflower flatsedge; [1]): 2 | S. Flatsedge plant response rating (smallflower flatsedge; [2]): 0 | S. Flatsedge plant response rating (smallflower flatsedge; [4]): 0 | Bedstraw plant response rating (bedstraw; [5]): 4 | Bedstraw plant response rating (bedstraw; [1]): 4 | Plant response rating, Bedstraw (bedstraw; [6]): 0 | Plant response rating, Bedstraw (bedstraw; [7]): 0 | Bedstraw plant response rating (bedstraw; [8]): 0 | Bedstraw plant response rating (bedstraw; [9]): 3 | Bedstraw plant response rating (bedstraw; [10]): 4 | Plant response rating, Bedstraw (bedstraw; [11]): 0 | Wheat plant response rating (wheat; [5]): 1 | Wheat plant response rating (wheat; [1]): 2 | Plant response rating, Wheat (wheat; [6]): 0 | Plant response rating, Wheat (wheat; [7]): 0 | Wheat plant response rating (wheat; [8]): 0 | Wheat plant response rating (wheat; [9]): 0 | Plant response rating, Wheat (wheat; [11]): 0
